Data from ChEMBL document CHEMBL4043198, “Synthesis and electronic properties of ester substituted 1,4-dicyanodibenzodioxins and evaluation of anti-proliferative activity of all isomeric 1,2-, 2,3- and 1,4-dicyanodibenzodioxins against HeLa cell line” (Bioorg Med Chem Lett, 2017).
The source made the active and inactive calls. The calls are words filed in the database; no cut-off is given here.

Assays:
[1] = tested on: HeLa; assay: Cytotoxicity against human HeLa cells assessed as reduction in cell viability after 24 hrs by MTT assay; assay type: functional, cell-based
[2] = tested on: HEK293; assay: Cytotoxicity against HEK293 cells assessed as reduction in cell viability at 2 to 5 uM after 24 hrs by MTT assay; assay type: cell-based; settings: human, hek293, 24 h
[3] = tested on: HeLa; assay: Cytotoxicity against human HeLa cells assessed as reduction in cell viability at 2 to 50 uM after 24 hrs by MTT assay relative to control; assay type: functional
[4] = tested on: HeLa; assay: Cytotoxicity against human HeLa cells assessed as cell viability at 2 uM after 24 hrs by MTT assay relative to control; assay type: functional; settings: read-out: Activity
[5] = tested on: HeLa; assay: Induction of morphological changes in human HeLa cells assessed as rounding-off of cells after 24 hrs by Hoechst 33258 staining based fluorescence microscopic analysis; assay type: functional, cell-based
[6] = tested on: HeLa; assay: Induction of morphological changes in human HeLa cells assessed as nuclear fragmentation after 24 hrs by Hoechst 33258 staining based fluorescence microscopic analysis; assay type: functional, cell-based
[7] = tested on: HeLa; assay: Induction of morphological changes in human HeLa cells assessed as loss of cell shape after 24 hrs by Hoechst 33258 staining based fluorescence microscopic analysis; assay type: functional
[8] = species: Bos taurus; assay: Binding affinity to calf thymus DNA assessed as intrinsic binding constant by UV spectrophotometry
[9] = tested on: HeLa; assay: Induction of reactive oxygen species generation in human HeLa cells at 5 to 10 uM after 24 hrs by DCFDA dye-based fluorescence assay; assay type: functional, cell-based

## N#Cc1cc2c(cc1C#N)Oc1ccccc1O2
[1]
  Activity: Dose-dependent effect
[2]
  Activity: Non-Toxic
[3]
  Activity: 70 - 80%

## COc1c(F)c(C#N)c2c(c1C#N)Oc1ccccc1O2
[1]
  Activity: Dose-dependent effect
  IC50: 1450 nM
[4]
  viability at 2 µM: 30%
[5]
  Activity: Dose-dependent effect
[6]
  Activity: Dose-dependent effect
[2]
  Activity: Non-Toxic
[7]
  Activity: Dose-dependent effect
[8]
  logKb: 5.38
[9]
  Activity: Active

## O=c1[nH]cc(F)c(=O)[nH]1 [FLUOROURACIL]
[1]
  IC50: 2900 nM

## N#Cc1cc2c(cc1C#N)Oc1cc([N+](=O)[O-])ccc1O2
[3]
  Activity: 70 - 80%

## N#Cc1c(F)c(F)c(C#N)c2c1Oc1ccccc1O2
[1]
  Activity: Dose-dependent effect
  IC50: 9620 nM
[2]
  Activity: Non-Toxic
[3]
  Activity: 70 - 80%

## N#Cc1cc2c(cc1C#N)Oc1cc(Br)ccc1O2
[1]
  Activity: Dose-dependent effect
  IC50: 8820 nM
[2]
  Activity: Non-Toxic
[3]
  Activity: 70 - 80%

## CCN(CC)c1c(F)c(C#N)c2c(c1C#N)Oc1ccccc1O2
[1]
  Activity: Dose-dependent effect
  IC50: 1470 nM
[4]
  viability at 2 µM: 30%
[5]
  Activity: Dose-dependent effect
[6]
  Activity: Dose-dependent effect
[2]
  Activity: Non-Toxic
[7]
  Activity: Dose-dependent effect
[8]
  logKb: 5.5
[9]
  Activity: Active

## COC(=O)c1ccc2c(c1)Oc1c(C#N)c(F)c(F)c(C#N)c1O2
[1]
  Activity: Dose-dependent effect
  IC50: 2990 nM
[4]
  viability at 2 µM: 50%
[5]
  Activity: Dose-dependent effect
[6]
  Activity: Dose-dependent effect
[2]
  Activity: Non-Toxic
[7]
  Activity: Dose-dependent effect
[8]
  logKb: 5.39
[9]
  Activity: Active

## N#Cc1c(F)c(F)c2c(c1C#N)Oc1ccccc1O2
[1]
  Activity: Dose-dependent effect
  IC50: 42200 nM
[2]
  Activity: Non-Toxic

## COC(=O)c1cccc2c1Oc1c(C#N)c(F)c(F)c(C#N)c1O2
[1]
  Activity: Dose-dependent effect
  IC50: 1570 nM
[4]
  viability at 2 µM: 35%
[5]
  Activity: Dose-dependent effect
[6]
  Activity: Dose-dependent effect
[2]
  Activity: Non-Toxic
[7]
  Activity: Dose-dependent effect
[8]
  logKb: 6
[9]
  Activity: Active

## CC/C(=C(\c1ccccc1)c1ccc(OCCN(C)C)cc1)c1ccccc1 [TAMOXIFEN]
[1]
  IC50: 8850 nM
